Measurements published in patent US8044052B2, “Biaryl ether urea compounds” (Pfizer Inc., priority 2006, dated 2011).

Test system: not given
Test: not given
Conditions: not given

**Q.** For `Cc1ccc(NC(=O)N2CCC(=C(F)c3cccc(Oc4ccc(C(F)(F)F)cn4)c3)CC2)cn1` [Example 70, 4-(fluoro(3-(5-(trifluoromethyl)pyridin-2-yloxy)phenyl)methylene)-N-(6-methylpyridin-3-yl)piperidine-1-carboxamide], which melting point is on record?
**A.** 158 to 160 °C

Target: T1, Human FAAH (Homo sapiens, UniProt O00519)
T1 construct: made in house
T1 sequence (O00519 1-579): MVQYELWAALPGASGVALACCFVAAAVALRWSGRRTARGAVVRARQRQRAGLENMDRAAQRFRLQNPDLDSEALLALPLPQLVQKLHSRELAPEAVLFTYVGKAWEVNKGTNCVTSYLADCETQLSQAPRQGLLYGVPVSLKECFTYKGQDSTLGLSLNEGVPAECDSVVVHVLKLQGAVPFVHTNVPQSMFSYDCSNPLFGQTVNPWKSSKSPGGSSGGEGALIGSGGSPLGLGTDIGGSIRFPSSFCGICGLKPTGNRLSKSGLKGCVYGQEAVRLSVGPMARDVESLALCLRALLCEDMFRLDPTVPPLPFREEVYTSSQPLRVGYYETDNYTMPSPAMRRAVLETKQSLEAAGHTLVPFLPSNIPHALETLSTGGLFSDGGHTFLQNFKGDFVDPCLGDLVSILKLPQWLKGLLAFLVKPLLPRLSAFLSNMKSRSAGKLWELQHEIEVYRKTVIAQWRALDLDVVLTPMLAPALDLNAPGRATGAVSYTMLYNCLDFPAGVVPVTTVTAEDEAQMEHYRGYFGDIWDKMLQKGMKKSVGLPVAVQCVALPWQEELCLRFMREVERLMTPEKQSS
Test: FAAH assay (glutamate dehydrogenase-coupled, oleamide substrate, absorbance at 340 nm)
Type: biochemical
Conditions: irreversible inhibition, 1-4 nM FAAH, pH 7.4, 30° C., 90 min

**Q.** With “N-(pyridazin-3-yl)-4-(3-{[phenyl-2-yl]oxy}benzylidene)piperidine-1-carboxamide [Example 32]” as the compound, how does the “hFAAH kinact/Ki” value read?
**A.** 973 M⁻¹ s⁻¹

**Q.** With “N-(pyridin-3-yl)-4-(3-[{phenyl-2-yl]oxy}benzylidene)piperidine-1-carboxamide [Example 31]” as the compound, how does the “hFAAH kinact/Ki” value read?
**A.** 931 M⁻¹ s⁻¹

**Q.** For “N-pyridin-4-yl-4-(3-{[5-(trifluoromethyl)pyridin-2-yl]oxy}benzylidene)piperidine-1-carboxamide trifluoroacetate [Example 76]”, which “hFAAH kinact/Ki” value is on record?
**A.** 2390 M⁻¹ s⁻¹

Same assay, conditions: irreversible inhibition, 1-4 nM FAAH, pH 7.4, 30° C., 90 min, read-out: hFAAH kinact/Ki

**Q.** Which kinact/KI does the source give for `Cc1ccc(NC(=O)N2CCC(=C(F)c3cccc(Oc4ccc(C(F)(F)F)cn4)c3)CC2)cn1` [Example 70, 4-(fluoro(3-(5-(trifluoromethyl)pyridin-2-yloxy)phenyl)methylene)-N-(6-methylpyridin-3-yl)piperidine-1-carboxamide] here?
**A.** 4590 M⁻¹ s⁻¹

**Q.** With `Cc1cc(NC(=O)N2CCC(=Cc3cccc(Oc4ccc(C(F)(F)F)cn4)c3)CC2)cnc1C` [Example 131, N-(5,6-dimethylpyridin-3-yl)-4-(3-{[5-(trifluoromethyl)pyridin-2-yl]oxy}benzylidene)piperidine-1-carboxamide] as the compound, how does the kinact/KI read?
**A.** 1110 M⁻¹ s⁻¹

**Q.** Which kinact/KI does the source give for `O=C(Nc1ncc(Br)cc1CO)N1CCC(=Cc2cccc(Oc3ccc(C(F)(F)F)cn3)c2)CC1` [Example 132, N-[5-bromo-3-(hydroxymethyl)pyridin-2-yl]-4-(3-{[5-(trifluoromethyl)pyridin-2-yl]oxy}benzylidene)piperidine-1-carboxamide] here?
**A.** 105 M⁻¹ s⁻¹

**Q.** With `Cc1noc(C)c1NC(=O)N1CCC(=Cc2cccc(Oc3ccc(C(F)(F)F)cn3)c2)CC1` [Example 133, N-(3,5-dimethylisoxazol-4-yl)-4-(3-{[5-(trifluoromethyl)pyridin-2-yl]oxy}benzylidene)piperidine-1-carboxamide] as the compound, how does the kinact/KI read?
**A.** 36.8 M⁻¹ s⁻¹

**Q.** For `Cc1nn(C)c(C)c1NC(=O)N1CCC(=Cc2cccc(Oc3ccc(C(F)(F)F)cn3)c2)CC1` [Example 134, 4-(3-{[5-(trifluoromethyl)pyridin-2-yl]oxy}benzylidene)-N-(1,3,5-trimethyl-1H-pyrazol-4-yl)piperidine-1-carboxamide], which kinact/KI is on record?
**A.** < 10 M⁻¹ s⁻¹

**Q.** Which kinact/KI does the source give for `Cc1ccnc(NC(=O)N2CCC(=Cc3cccc(Oc4ccc(C(F)(F)F)cn4)c3)CC2)c1` [Example 135, N-(4-methylpyridin-2-yl)-4-(3-{[5-(trifluoromethyl)pyridin-2-yl]oxy}benzylidene)piperidine-1-carboxamide] here?
**A.** 173 M⁻¹ s⁻¹

**Q.** For `Cn1cc(NC(=O)N2CCC(=Cc3cccc(Oc4ccc(C(F)(F)F)cn4)c3)CC2)cn1` [Example 137, N-(1-methyl-1H-pyrazol-4-yl)-4-(3-{[5-(trifluoromethyl)pyridin-2-yl]oxy}benzylidene)piperidine-1-carboxamide], which kinact/KI is on record?
**A.** 1070 M⁻¹ s⁻¹

**Q.** For `O=C(Nc1cn[nH]c1)N1CCC(=Cc2cccc(Oc3ccc(C(F)(F)F)cn3)c2)CC1` [Example 138, N-1H-pyrazol-4-yl-4-(3-{[5-(trifluoromethyl)pyridin-2-yl]oxy}benzylidene)piperidine-1-carboxamide], which kinact/KI is on record?
**A.** 4300 M⁻¹ s⁻¹

**Q.** For `Cc1cc(NC(=O)N2CCC(=Cc3cccc(Oc4ccc(C(F)(F)F)cn4)c3)CC2)n[nH]1` [Example 139, N-(5-methyl-1H-pyrazol-3-yl)-4-(3-{[5-(trifluoromethyl)pyridin-2-yl]oxy}benzylidene)piperidine-1-carboxamide], which kinact/KI is on record?
**A.** 306 M⁻¹ s⁻¹

**Q.** For `COc1ccc(NC(=O)N2CCC(=Cc3cccc(Oc4ccc(C(F)(F)F)cn4)c3)CC2)c(C)n1` [Example 140, N-(6-methoxy-2-methylpyridin-3-yl)-4-(3-{[5-(trifluoromethyl)pyridin-2-yl]oxy}benzylidene)piperidine-1-carboxamide], which kinact/KI is on record?
**A.** 837 M⁻¹ s⁻¹

**Q.** For `CCc1ccnc(NC(=O)N2CCC(=Cc3cccc(Oc4ccc(C(F)(F)F)cn4)c3)CC2)c1` [Example 141, N-(4-ethylpyridin-2-yl)-4-(3-{[5-(trifluoromethyl)pyridin-2-yl]oxy}benzylidene)piperidine-1-carboxamide], which kinact/KI is on record?
**A.** 117 M⁻¹ s⁻¹

**Q.** With `O=C(Nc1ccc(O)nc1)N1CCC(=Cc2cccc(Oc3ccc(C(F)(F)F)cn3)c2)CC1` [Example 142, N-(6-hydroxypyridin-3-yl)-4-(3-{[5-(trifluoromethyl)pyridin-2-yl]oxy}benzylidene)piperidine-1-carboxamide] as the compound, how does the kinact/KI read?
**A.** 246 M⁻¹ s⁻¹

**Q.** Which kinact/KI does the source give for `O=C(Nc1cc(O)[nH]n1)N1CCC(=Cc2cccc(Oc3ccc(C(F)(F)F)cn3)c2)CC1` [Example 143, N-(5-hydroxy-1H-pyrazol-3-yl)-4-(3-{[5-(trifluoromethyl)pyridin-2-yl]oxy}benzylidene)piperidine-1-carboxamide] here?
**A.** 412 M⁻¹ s⁻¹
